According to PMC8403083 (OncoTargets and therapy, 2021):

How the values were obtained:
CD73 = biological target: T1, CD73 (Mus musculus, UniProt Q61503); test: CMP hydrolysis by EMT6 cells, Malachite green phosphate detection; format: cell-based
T1 sequence (Q61503 29-551): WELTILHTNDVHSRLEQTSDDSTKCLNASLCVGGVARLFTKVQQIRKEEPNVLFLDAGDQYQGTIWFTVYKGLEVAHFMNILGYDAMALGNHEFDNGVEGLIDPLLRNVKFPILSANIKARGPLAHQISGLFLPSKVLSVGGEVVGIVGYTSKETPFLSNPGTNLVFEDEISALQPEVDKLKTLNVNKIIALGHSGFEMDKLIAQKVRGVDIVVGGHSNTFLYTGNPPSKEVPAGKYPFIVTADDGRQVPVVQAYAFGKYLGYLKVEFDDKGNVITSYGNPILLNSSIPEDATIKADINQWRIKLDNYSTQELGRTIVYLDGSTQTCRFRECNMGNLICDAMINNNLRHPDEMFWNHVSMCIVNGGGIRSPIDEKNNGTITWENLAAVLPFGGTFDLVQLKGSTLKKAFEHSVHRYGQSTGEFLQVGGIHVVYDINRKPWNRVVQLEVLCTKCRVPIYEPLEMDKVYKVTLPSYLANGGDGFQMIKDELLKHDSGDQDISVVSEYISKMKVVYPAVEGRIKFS

CD73 (5ʹ-Nucleotidase) = biological target: T2, CD73 (5ʹ-Nucleotidase) (Homo sapiens, UniProt P21589); test: Malachite green phosphate assay, CMP substrate, […] h preincubation; format: biochemical
T2 sequence (P21589 27-547): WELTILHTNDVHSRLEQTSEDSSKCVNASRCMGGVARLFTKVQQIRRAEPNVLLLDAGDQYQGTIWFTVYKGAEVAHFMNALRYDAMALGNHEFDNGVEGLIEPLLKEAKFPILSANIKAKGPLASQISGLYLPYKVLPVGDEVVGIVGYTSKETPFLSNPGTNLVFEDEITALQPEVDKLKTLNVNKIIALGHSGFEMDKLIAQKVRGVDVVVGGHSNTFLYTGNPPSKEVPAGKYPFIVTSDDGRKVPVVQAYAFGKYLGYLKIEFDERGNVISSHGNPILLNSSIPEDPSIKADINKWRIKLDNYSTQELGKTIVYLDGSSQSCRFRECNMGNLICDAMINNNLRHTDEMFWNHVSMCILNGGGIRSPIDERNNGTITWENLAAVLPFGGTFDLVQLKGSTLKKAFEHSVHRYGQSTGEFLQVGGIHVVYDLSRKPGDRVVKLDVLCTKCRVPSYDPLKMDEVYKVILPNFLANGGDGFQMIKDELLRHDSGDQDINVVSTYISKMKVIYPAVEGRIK

Row | SMILES | IC50 (CD73) [nM] | IC50 (CD73 (5ʹ-Nucleotidase)) [nM]
1 | O=P(O)(O)COC[C@H]1O[C@@H](n2ncc3c(N4CC5(CCc6ccccc65)C4)nc(Cl)nc32)[C@H](O)[C@@H]1O [SHR170008, ((((2R,3S,4R,5R)-5-(6-chloro-4-(2ʹ,3ʹ-dihydrospiro[azetidine-3,1ʹ-inden]-1-yl)-1H-pyrazolo[3,4-d]pyrimidin-1-yl)-3,4-dihydroxytetrahydrofuran-2-yl)methoxy)methyl) phosphonic acid] | 0.133 ± 0.008 | –
2 | Nc1ncnc2c1ncn2[C@@H]1O[C@H](COP(=O)(O)CP(=O)(O)O)[C@@H](O)[C@H]1O [AMPCP] | 130 ± 8 | 3.8 ± 0.8
